{"source": "paper PMC5422493", "about": "“Important amino acid residues of hexachlorocyclohexane dehydrochlorinases (LinA) for enantioselective transformation of hexachlorocyclohexane isomers” (Biodegradation, 2017)", "key": {"LinA-type2": {"target": "T1, LinA-type2 (uncultured organism, UniProt B5ANU3)", "T1 construct": "natural variant differing from LinA-type1 at ten positions (incl. Q20, C96, G131, M133); pET-26b(+) NdeI/XhoI (C-terminal His tag), E. coli BL21(DE3), Ni-NTA purified", "T1 sequence (B5ANU3 1-156)": "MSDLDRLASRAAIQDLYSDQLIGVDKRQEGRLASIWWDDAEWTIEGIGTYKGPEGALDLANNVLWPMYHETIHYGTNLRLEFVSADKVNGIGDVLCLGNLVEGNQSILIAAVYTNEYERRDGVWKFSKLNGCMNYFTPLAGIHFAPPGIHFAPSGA", "test": "product formation by chiral GC-ECD", "type": "biochemical", "conditions": "50 mM Tris-HCl pH 8.0, 10% glycerol, 30 °C"}, "LinA-type1": {"target": "T2, LinA-type1 (Sphingobium indicum, UniProt P51697)", "T2 construct": "full length 156 residues, pET-26b(+) NdeI/XhoI (C-terminal His tag), E. coli BL21(DE3), Ni-NTA purified", "T2 sequence (P51697 1-156)": "T1 sequence (B5ANU3 1-156) with Q20K, G23A, Y68F, T71C, C96L, Y113F, N115D, L129R, G131A, M133T", "test": "product formation by chiral GC-ECD", "type": "biochemical", "conditions": "50 mM Tris-HCl pH 8.0, 10% glycerol, 30 °C"}}, "note": "Substitutions are numbered along the chain they refer to.", "data": [{"smiles": "Cl[C@H]1[C@H](Cl)[C@@H](Cl)[C@@H](Cl)[C@H](Cl)[C@H]1Cl", "note": "[γ-HCH]", "values": [{"measurement": "product formation by chiral GC-ECD", "setting": "LinA-type2", "result": "incubations with LinA-type2 led to the formation of a mixture"}, {"measurement": "product formation by chiral GC-ECD", "setting": "LinA-type1", "result": "incubations of LinA-type1 with γ-HCH led to the formation of only γ-PCCH-2"}]}]}
